Results reported in patent US20060069132A1, “Azolecarboxamide herbicides” (priority 2004, published 2006).

Columns and labels:
rice [1] = test: Test B pre-/postemergence herbicide test; type: in vivo, Oryza sativa
In short: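 Response was scored visually 13 to 15 days after treatment against untreated greenhouse controls, 0 meaning no effect and 100 complete control. Formulations (solvent mixture plus surfactant) went onto soil after planting, onto foliage of 1- to 4-leaf plants, and onto 2-leaf plants in a flooded paddy set including rice and barnyardgrass.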

rice [2] = test: Test C flooded paddy test; type: in vivo, Oryza sativa
In short: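 Postemergence sprays applied to plants 2 to 18 cm tall (1- to 4-leaf stage); paddy species grown to 2-leaf stage under flooding. After 12 to 14 days in greenhouse, visual rating versus untreated controls on 0–100 scale (0 no effect, 100 complete control).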

Surinam grass = test: Test C pre-/postemergence herbicide test; type: in vivo, Urochloa decumbens; conditions: for Surinam Grass plant response rating: 500 g ai/ha
In short: (§1)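 Pre/post spray; non-phytotoxic solvent + surfactant. Post-timing 1–4 leaves, 2–18 cm. Read-out: visual % control vs untreated, day 12–14, greenhouse.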

large crabgrass = test: Test C pre-/postemergence herbicide test; type: in vivo, Digitaria sanguinalis; conditions: for Crabgrass, Large plant response rating: 500 g ai/ha
In short: as §1

goosegrass = test: Test C pre-/postemergence herbicide test; type: in vivo, Eleusine indica; conditions: for Goosegrass plant response rating: 500 g ai/ha
In short: as §1

johnsongrass = test: Test C pre-/postemergence herbicide test; type: in vivo, Sorghum halepense; conditions: for Johnsongrass plant response rating: 500 g ai/ha
In short: as §1

kochia = test: Test C pre-/postemergence herbicide test; type: in vivo, Kochia scoparia; conditions: for Kochia plant response rating: 500 g ai/ha
In short: as §1

pigweed = test: Test C pre-/postemergence herbicide test; type: in vivo, Amaranthus retroflexus; conditions: for Pigweed plant response rating: 500 g ai/ha
In short: as §1

soybean = test: Test C pre-/postemergence herbicide test; type: in vivo, Glycine max; conditions: for Soybean plant response rating: 500 g ai/ha
In short: as §1

velvetleaf = test: Test C pre-/postemergence herbicide test; type: in vivo, Abutilon theophrasti; conditions: for Velvetleaf plant response rating: 500 g ai/ha
In short: as §1

[3] = 125 g ai/ha, scale 0 (no effect) to 100 (complete control), visual, 12 to 14 days, preemergence
[4] = 250 g ai/ha, scale 0 to 100 (0 no effect, 100 complete control), visual, 12 to 14 days, preemergence
[5] = Postemergence, 250 g ai/ha, scale 0 to 100, 0 no effect, 100 complete control
[6] = Preemergence, scale 0 to 100, 0 no effect, 100 complete control
[7] = postemergence, 62 g ai/ha, scale 0 to 100
[8] = Postemergence, 125 g ai/ha, scale 0 to 100, 0 no effect, 100 complete control
[9] = postemergence, 125 g ai/ha, scale 0 to 100

CCOC(=O)c1cccc(NC(=O)c2cc(C(C)(C)C)nn2C)n1 [Compound 313]
40: Plant response rating, Rice (rice [1]; 500 g ai/ha, visual rating, 0 = no effect, 100 = complete control, preemergence)
0: Rice plant response rating (rice [2]; 16 g ai/ha, scale 0 to 100) | Rice plant response rating (rice [2]; 31 g ai/ha, scale 0 to 100) | Rice plant response rating (rice [2]; 62 g ai/ha, scale 0 to 100)
20: Rice plant response rating (0 to 100 scale) (rice [1]; 125 g ai/ha, 0 = no effect, 100 = complete control, preemergence) | Rice plant response rating (rice [2]; 125 g ai/ha, scale 0 to 100 (0 no effect, 100 complete control))

C#CCn1nc(C(C)(C)C)cc1C(=O)Nc1cccc(C(=O)NCC)c1 [Compound 50]
85: Surinam Grass plant response rating (Surinam grass; [6]) | Plant response rating, Kochia (kochia; [3])
50: Rice plant response rating (rice [1]; Preemergence, 500 g ai/ha, scale 0 to 100) | Plant response rating, Surinam Grass (Surinam grass; [5]) | Plant response rating, Pigweed (pigweed; [7])
80: Plant response rating, Surinam Grass (Surinam grass; [4]) | Crabgrass, Large plant response rating (large crabgrass; [6]) | Plant response rating, Goosegrass (goosegrass; [3])
90: Plant response rating, Goosegrass (goosegrass; [5]) | Plant response rating (0 = no effect, 100 = complete control), Pigweed (pigweed; 62 g ai/ha, preemergence) | Plant response rating, Pigweed (pigweed; [3])
5: Plant response rating, Velvetleaf (velvetleaf; [3]) | Plant response rating, Velvetleaf (velvetleaf; [4]) | Velvetleaf plant response rating (velvetleaf; [6])
40: Plant response rating (0 = no effect, 100 = complete control), Goosegrass (goosegrass; 62 g ai/ha, preemergence)
95: Plant response rating, Pigweed (pigweed; [4]) | Pigweed plant response rating (pigweed; [6])
0: Plant response rating (0 = no effect, 100 = complete control), Surinam Grass (Surinam grass; 62 g ai/ha, preemergence) | Plant response rating (0 = no effect, 100 = complete control), Crabgrass, Large (large crabgrass; 62 g ai/ha, preemergence) | Plant response rating, Crabgrass, Large (large crabgrass; [3]) | Crabgrass, Large plant response rating (large crabgrass; Postemergence, scale 0 to 100) | Plant response rating, Crabgrass, Large (large crabgrass; [8]) | Plant response rating, Crabgrass, Large (large crabgrass; [5]) | Plant response rating, Crabgrass, Large (large crabgrass; [7]) | Plant response rating (0 = no effect, 100 = complete control), Johnsongrass (johnsongrass; 62 g ai/ha, preemergence) | Plant response rating, Johnsongrass (johnsongrass; [4]) | Johnsongrass plant response rating (johnsongrass; Postemergence, scale 0 to 100) | Plant response rating, Johnsongrass (johnsongrass; [8]) | Plant response rating, Johnsongrass (johnsongrass; [5]) | Johnsongrass plant response rating (johnsongrass; [6]) | Plant response rating, Johnsongrass (johnsongrass; [7]) | Plant response rating, Kochia (kochia; [7]) | Plant response rating (0 = no effect, 100 = complete control), Soybean (soybean; 62 g ai/ha, preemergence) | Plant response rating, Soybean (soybean; [3]) | Plant response rating, Soybean (soybean; [4]) | Soybean plant response rating (soybean; [6]) | Plant response rating (0 = no effect, 100 = complete control), Velvetleaf (velvetleaf; 62 g ai/ha, preemergence)
100: Plant response rating, Goosegrass (goosegrass; [4]) | Goosegrass plant response rating (goosegrass; [6]) | Plant response rating, Kochia (kochia; [4]) | Kochia plant response rating (kochia; [6]) | Pigweed plant response rating (pigweed; Postemergence, scale 0 to 100) | Plant response rating, Pigweed (pigweed; [5]) | Soybean plant response rating (soybean; Postemergence, scale 0 to 100) | Plant response rating, Soybean (soybean; [5]) | Plant response rating, Soybean (soybean; [7]) | Velvetleaf plant response rating (velvetleaf; Postemergence, scale 0 to 100) | Plant response rating, Velvetleaf (velvetleaf; [5]) | Plant response rating, Velvetleaf (velvetleaf; [7])
10: Plant response rating, Rice (rice [1]; preemergence, 125 g ai/ha, 0 to 100 scale, 0 is no effect, 100 is complete control) | Plant response rating, Surinam Grass (Surinam grass; [3]) | Plant response rating, Surinam Grass (Surinam grass; [7]) | Kochia plant response rating (kochia; Postemergence, scale 0 to 100) | Plant response rating, Kochia (kochia; [8]) | Plant response rating, Kochia (kochia; [5])
20: Plant response rating, Crabgrass, Large (large crabgrass; [4])
30: Plant response rating, Goosegrass (goosegrass; [8]) | Plant response rating, Goosegrass (goosegrass; [7]) | Plant response rating (0 = no effect, 100 = complete control), Kochia (kochia; 62 g ai/ha, preemergence)

CCn1nc(C(C)(C)C)cc1C(=O)Nc1cccc(SC(F)(F)F)c1 [Compound 130]
5: Plant response rating (0 = no effect, 100 = complete control), Surinam Grass (Surinam grass; 62 g ai/ha, preemergence) | Plant response rating, Surinam Grass (Surinam grass; [3])
30: Plant response rating, Surinam Grass (Surinam grass; [5]) | Plant response rating, Johnsongrass (johnsongrass; [5]) | Plant response rating, Kochia (kochia; [9]) | Plant response rating, Velvetleaf (velvetleaf; [9])
70: Plant response rating, Kochia (kochia; [5]) | Soybean plant response rating (soybean; Postemergence, scale 0 to 100)
50: Goosegrass plant response rating (goosegrass; [6])
100: Kochia plant response rating (kochia; [6]) | Pigweed plant response rating (pigweed; Postemergence, scale 0 to 100) | Plant response rating, Pigweed (pigweed; [5]) | Pigweed plant response rating (pigweed; [6]) | Plant response rating, Pigweed (pigweed; [9]) | Velvetleaf plant response rating (velvetleaf; [6])
95: Plant response rating, Crabgrass, Large (large crabgrass; [4]) | Crabgrass, Large plant response rating (large crabgrass; [6])
90: Plant response rating, Crabgrass, Large (large crabgrass; [3]) | Crabgrass, Large plant response rating (large crabgrass; Postemergence, scale 0 to 100) | Plant response rating, Pigweed (pigweed; [3])
10: Plant response rating, Surinam Grass (Surinam grass; [9]) | Plant response rating (0 = no effect, 100 = complete control), Goosegrass (goosegrass; 62 g ai/ha, preemergence) | Plant response rating, Johnsongrass (johnsongrass; [9]) | Soybean plant response rating (soybean; [6]) | Plant response rating, Velvetleaf (velvetleaf; [3])
20: Plant response rating, Crabgrass, Large (large crabgrass; [5]) | Plant response rating, Goosegrass (goosegrass; [3]) | Plant response rating, Goosegrass (goosegrass; [9])
80: Johnsongrass plant response rating (johnsongrass; [6]) | Plant response rating (0 = no effect, 100 = complete control), Pigweed (pigweed; 62 g ai/ha, preemergence)
0: Plant response rating, Rice (rice [1]; 500 g ai/ha, visual rating 0-100, 0 no effect, 100 complete control, preemergence) | Plant response rating (0 = no effect, 100 = complete control), Kochia (kochia; 62 g ai/ha, preemergence) | Plant response rating, Kochia (kochia; [3]) | Plant response rating (0 = no effect, 100 = complete control), Soybean (soybean; 62 g ai/ha, preemergence) | Plant response rating, Soybean (soybean; [3])
40: Johnsongrass plant response rating (johnsongrass; Postemergence, scale 0 to 100) | Plant response rating, Soybean (soybean; [5]) | Plant response rating, Soybean (soybean; [9]) | Plant response rating, Velvetleaf (velvetleaf; [5])
60: Surinam Grass plant response rating (Surinam grass; Postemergence, scale 0 to 100) | Surinam Grass plant response rating (Surinam grass; [6]) | Goosegrass plant response rating (goosegrass; Postemergence, scale 0 to 100) | Plant response rating, Goosegrass (goosegrass; [5])
85: Kochia plant response rating (kochia; Postemergence, scale 0 to 100) | Velvetleaf plant response rating (velvetleaf; Postemergence, scale 0 to 100)
